Broadly, the AC50 is the midpoint of the concentration-response curve, whichever way the signal moves.

Among the targets are Vasopressin V1a receptor (Homo sapiens, UniProt P37288); D(3) dopamine receptor (Homo sapiens, UniProt P35462); Melanocortin receptor 4 (Homo sapiens, UniProt P32245).
Test [1] addresses Beta-2 adrenergic receptor (Homo sapiens, UniProt P07550).
Another test concerns the target Cannabinoid receptor 1 (Homo sapiens, UniProt P21554). It counts as functional, cell-based.
The target in test [2] is T1, Alpha-2A adrenergic receptor (Homo sapiens, UniProt P08913).
T1 sequence (P08913 whole entry): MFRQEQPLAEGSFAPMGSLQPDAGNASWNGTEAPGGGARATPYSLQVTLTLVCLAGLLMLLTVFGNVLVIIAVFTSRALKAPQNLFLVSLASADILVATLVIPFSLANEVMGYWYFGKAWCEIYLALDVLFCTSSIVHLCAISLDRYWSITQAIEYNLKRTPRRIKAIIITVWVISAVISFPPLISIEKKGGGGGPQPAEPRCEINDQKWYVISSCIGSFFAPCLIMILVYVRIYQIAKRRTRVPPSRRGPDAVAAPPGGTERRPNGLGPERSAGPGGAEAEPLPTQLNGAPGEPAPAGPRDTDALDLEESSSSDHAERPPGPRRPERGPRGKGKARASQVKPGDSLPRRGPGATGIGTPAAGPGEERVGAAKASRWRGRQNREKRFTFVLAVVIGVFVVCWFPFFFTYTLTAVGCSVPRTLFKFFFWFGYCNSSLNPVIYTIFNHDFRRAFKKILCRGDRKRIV
It counts as functional, cell-based.

Test [3] concerns the target T2, Gamma-aminobutyric acid receptor subunit alpha-1 (Rattus norvegicus, UniProt P62813).
The target in test [4] is Voltage-dependent L-type calcium channel subunit alpha-1C (Rattus norvegicus, UniProt P22002). The class given is functional.
A further test addresses D(1A) dopamine receptor (Homo sapiens, UniProt P21728). It counts as functional, cell-based.
For test [5], the target named is T2, Gamma-aminobutyric acid receptor subunit alpha-1. The class given is functional.
In test [6] the target is Growth hormone secretagogue receptor type 1 (Homo sapiens, UniProt Q92847).
Test [7] deals with T3, Muscarinic acetylcholine receptor M1 (Homo sapiens, UniProt P11229).
T3 sequence (P11229 whole entry): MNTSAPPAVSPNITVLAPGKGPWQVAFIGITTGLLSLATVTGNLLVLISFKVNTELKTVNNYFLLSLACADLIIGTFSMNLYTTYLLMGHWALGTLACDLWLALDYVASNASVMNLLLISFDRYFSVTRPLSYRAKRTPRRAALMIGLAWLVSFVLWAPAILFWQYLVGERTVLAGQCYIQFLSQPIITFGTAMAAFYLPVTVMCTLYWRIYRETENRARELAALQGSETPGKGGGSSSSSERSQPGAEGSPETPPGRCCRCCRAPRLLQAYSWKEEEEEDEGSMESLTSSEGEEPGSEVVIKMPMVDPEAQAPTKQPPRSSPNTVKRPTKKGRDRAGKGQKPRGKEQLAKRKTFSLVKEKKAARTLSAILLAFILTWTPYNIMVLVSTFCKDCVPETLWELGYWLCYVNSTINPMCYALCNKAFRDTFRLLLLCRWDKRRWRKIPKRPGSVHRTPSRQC
The class given is functional.

The target of test [8] is Sodium-dependent dopamine transporter (Homo sapiens, UniProt Q01959).
Test [9] concerns the target T4, Type-1 angiotensin II receptor (Homo sapiens, UniProt P30556).
T4 sequence (P30556 whole entry): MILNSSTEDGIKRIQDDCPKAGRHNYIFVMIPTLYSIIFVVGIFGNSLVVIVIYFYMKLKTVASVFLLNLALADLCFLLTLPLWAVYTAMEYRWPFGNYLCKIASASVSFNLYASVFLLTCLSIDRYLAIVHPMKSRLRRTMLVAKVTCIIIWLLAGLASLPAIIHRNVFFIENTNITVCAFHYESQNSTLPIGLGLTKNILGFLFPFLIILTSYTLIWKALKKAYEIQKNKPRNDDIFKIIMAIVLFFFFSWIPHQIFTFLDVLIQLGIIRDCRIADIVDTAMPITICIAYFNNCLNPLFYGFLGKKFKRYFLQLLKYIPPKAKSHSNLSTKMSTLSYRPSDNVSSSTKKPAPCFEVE

The target in test [10] is Voltage-gated inwardly rectifying potassium channel KCNH2 (Homo sapiens, UniProt Q12809). The class given is functional. Particulars: read-out: AC50.
In test [11] the target is Kappa-type opioid receptor (Homo sapiens, UniProt P41145).
Test [12] addresses T5, 5-hydroxytryptamine receptor 3A (Homo sapiens, UniProt P46098).
T5 sequence (P46098 whole entry): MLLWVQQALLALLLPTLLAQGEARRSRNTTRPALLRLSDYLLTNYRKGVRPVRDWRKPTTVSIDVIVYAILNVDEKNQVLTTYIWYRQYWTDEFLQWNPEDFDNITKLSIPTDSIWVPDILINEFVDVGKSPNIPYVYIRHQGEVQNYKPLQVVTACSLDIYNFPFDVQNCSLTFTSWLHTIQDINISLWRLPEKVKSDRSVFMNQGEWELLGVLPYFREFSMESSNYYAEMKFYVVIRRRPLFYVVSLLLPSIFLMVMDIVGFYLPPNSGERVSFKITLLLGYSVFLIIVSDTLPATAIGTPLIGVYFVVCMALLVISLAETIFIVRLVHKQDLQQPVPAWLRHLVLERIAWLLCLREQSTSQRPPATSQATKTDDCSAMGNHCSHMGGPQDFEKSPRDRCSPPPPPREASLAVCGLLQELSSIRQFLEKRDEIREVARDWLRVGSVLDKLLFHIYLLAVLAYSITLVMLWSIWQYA
It counts as functional.

Structures are written as SMILES.
Also: assay procedure not described here.

Sequence of Voltage-gated inwardly rectifying potassium channel KCNH2 (Q12809 whole entry): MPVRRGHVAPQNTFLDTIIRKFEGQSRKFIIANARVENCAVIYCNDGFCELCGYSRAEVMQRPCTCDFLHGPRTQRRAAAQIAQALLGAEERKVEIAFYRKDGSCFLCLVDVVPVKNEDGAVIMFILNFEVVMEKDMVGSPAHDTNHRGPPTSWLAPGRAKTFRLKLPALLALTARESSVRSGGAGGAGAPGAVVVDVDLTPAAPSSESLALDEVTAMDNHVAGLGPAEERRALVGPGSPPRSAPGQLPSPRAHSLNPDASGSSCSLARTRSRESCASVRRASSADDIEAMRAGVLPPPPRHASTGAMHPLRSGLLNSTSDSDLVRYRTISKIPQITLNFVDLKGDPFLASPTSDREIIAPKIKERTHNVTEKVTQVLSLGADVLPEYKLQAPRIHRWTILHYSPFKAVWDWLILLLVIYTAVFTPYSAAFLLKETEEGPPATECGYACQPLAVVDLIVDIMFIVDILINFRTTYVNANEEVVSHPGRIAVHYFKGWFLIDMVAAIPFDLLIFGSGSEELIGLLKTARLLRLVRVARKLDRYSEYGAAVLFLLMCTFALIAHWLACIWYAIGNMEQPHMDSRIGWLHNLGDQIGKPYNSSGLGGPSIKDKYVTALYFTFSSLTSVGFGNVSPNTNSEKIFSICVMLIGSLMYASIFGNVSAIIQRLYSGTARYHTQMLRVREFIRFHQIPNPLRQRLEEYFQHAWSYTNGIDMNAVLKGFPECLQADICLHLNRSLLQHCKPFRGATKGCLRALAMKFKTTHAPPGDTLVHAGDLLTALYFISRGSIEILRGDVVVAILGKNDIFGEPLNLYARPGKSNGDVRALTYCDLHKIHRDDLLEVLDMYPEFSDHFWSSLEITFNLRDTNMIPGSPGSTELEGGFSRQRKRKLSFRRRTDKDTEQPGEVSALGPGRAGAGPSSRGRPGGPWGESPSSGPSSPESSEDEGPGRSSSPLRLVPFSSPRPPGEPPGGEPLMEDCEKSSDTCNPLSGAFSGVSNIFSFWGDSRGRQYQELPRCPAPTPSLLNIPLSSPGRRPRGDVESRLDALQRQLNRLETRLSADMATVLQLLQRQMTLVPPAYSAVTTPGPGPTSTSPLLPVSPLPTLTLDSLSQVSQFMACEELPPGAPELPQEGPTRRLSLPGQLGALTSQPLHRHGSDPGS
Sequence of Beta-2 adrenergic receptor (P07550 whole entry): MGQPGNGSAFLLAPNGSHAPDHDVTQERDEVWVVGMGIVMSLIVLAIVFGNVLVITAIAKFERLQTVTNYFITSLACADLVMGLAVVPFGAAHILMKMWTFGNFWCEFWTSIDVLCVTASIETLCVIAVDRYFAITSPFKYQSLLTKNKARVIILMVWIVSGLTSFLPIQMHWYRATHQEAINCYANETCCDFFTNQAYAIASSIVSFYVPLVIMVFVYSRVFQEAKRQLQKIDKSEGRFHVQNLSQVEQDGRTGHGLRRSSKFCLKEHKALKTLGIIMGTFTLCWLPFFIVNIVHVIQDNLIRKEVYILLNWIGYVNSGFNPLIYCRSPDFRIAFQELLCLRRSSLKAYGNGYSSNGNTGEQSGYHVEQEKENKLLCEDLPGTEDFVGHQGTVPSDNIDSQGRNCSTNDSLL
Sequence of Vasopressin V1a receptor (P37288 whole entry): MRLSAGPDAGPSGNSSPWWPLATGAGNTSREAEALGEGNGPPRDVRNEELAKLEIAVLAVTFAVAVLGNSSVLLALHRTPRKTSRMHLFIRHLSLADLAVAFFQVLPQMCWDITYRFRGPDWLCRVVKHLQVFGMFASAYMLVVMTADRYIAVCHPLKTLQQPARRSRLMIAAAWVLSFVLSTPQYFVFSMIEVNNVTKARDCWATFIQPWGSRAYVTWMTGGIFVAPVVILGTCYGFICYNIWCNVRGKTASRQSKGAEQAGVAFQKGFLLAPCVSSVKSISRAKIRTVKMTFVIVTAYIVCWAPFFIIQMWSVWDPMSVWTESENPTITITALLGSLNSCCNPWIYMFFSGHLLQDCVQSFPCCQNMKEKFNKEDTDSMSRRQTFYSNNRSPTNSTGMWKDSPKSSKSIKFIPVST
Sequence of Melanocortin receptor 4 (P32245 whole entry): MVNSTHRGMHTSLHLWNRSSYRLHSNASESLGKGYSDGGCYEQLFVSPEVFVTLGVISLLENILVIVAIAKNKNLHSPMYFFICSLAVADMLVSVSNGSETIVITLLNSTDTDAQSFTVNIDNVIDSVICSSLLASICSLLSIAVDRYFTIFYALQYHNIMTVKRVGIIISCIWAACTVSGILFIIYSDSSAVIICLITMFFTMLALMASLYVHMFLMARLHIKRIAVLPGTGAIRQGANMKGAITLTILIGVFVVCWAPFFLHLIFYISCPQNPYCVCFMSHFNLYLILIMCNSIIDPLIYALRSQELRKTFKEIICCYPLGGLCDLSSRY
Sequence of D(3) dopamine receptor (P35462 whole entry): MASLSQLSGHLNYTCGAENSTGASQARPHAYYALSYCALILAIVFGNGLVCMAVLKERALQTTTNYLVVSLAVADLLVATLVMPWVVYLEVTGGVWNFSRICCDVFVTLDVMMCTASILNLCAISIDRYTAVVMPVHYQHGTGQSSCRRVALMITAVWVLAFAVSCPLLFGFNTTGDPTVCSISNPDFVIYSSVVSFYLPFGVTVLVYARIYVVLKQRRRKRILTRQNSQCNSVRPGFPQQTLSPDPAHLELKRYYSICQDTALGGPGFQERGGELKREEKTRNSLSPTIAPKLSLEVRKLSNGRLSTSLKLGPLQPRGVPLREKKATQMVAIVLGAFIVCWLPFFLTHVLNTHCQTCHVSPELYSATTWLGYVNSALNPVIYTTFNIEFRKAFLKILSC
Sequence of Sodium-dependent dopamine transporter (Q01959 whole entry): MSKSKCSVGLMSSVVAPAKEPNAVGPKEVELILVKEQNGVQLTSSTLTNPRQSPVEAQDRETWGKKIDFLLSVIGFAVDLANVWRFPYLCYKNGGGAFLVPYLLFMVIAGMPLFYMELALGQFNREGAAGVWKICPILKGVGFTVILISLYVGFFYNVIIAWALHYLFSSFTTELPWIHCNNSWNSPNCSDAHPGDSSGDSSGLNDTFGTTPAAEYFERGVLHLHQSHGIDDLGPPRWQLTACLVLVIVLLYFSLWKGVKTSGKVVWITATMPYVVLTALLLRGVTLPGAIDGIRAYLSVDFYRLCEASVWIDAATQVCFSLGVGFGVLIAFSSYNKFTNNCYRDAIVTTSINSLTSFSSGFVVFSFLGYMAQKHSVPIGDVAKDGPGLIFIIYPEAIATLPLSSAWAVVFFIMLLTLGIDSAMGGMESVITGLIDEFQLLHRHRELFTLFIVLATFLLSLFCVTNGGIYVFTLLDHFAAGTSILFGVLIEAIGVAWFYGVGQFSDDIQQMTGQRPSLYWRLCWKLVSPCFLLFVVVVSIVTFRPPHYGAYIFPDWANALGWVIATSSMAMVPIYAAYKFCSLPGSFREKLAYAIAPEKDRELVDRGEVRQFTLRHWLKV
Sequence of D(1A) dopamine receptor (P21728 whole entry): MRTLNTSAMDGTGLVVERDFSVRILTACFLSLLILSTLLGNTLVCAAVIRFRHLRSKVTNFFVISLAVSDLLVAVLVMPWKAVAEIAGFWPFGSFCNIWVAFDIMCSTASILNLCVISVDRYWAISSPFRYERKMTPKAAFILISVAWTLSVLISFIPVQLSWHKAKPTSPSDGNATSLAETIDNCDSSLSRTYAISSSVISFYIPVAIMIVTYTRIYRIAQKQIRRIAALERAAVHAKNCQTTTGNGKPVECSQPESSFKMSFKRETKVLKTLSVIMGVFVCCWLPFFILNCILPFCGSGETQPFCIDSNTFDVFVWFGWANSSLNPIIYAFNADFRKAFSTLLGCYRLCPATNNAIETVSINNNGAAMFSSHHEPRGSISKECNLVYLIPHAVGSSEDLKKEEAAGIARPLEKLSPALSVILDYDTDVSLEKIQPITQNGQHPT
Sequence of Growth hormone secretagogue receptor type 1 (Q92847 whole entry): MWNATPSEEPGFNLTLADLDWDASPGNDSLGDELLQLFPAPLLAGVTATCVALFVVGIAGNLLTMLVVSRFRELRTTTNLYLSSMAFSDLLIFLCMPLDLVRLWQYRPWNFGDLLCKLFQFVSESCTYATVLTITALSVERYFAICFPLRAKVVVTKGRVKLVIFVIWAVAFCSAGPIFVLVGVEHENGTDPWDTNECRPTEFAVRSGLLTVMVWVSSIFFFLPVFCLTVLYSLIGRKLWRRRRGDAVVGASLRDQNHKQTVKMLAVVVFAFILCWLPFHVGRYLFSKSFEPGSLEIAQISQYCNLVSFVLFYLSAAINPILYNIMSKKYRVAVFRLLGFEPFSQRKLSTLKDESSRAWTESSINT
T2 sequence (P62813 whole entry): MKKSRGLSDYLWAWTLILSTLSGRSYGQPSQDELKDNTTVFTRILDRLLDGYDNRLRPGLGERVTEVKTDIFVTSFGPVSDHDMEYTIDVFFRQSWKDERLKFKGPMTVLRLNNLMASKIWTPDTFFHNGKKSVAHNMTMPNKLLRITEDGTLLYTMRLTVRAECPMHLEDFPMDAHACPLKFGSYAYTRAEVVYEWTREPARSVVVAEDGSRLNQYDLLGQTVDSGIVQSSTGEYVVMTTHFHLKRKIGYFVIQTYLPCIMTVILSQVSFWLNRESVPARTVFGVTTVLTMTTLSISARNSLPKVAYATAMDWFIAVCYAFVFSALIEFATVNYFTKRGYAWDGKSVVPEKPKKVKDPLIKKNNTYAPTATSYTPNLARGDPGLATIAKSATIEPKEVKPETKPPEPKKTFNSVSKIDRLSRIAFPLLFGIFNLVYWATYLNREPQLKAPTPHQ
Sequence of Kappa-type opioid receptor (P41145 whole entry): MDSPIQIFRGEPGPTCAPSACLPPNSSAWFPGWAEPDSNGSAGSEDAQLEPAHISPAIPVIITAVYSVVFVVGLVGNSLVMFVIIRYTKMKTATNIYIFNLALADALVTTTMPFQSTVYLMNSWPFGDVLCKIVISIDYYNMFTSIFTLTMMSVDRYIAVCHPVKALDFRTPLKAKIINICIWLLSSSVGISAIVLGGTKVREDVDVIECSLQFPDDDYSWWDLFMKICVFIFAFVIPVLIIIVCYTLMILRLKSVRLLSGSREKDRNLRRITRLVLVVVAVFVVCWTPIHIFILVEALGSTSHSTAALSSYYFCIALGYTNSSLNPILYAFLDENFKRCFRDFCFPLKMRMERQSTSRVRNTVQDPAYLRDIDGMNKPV

In the case of `CCN(CC)CCCN(c1ccccc1)C1Cc2ccccc2C1` [APRINDINE], the AC50 in test [1] was above 10 µM; on Cannabinoid receptor 1, above 30 µM; in [2], above 30 µM; in test [3] it was above 30 µM; at Vasopressin V1a receptor it was above 30 µM; at D(3) dopamine receptor it was 3.15 µM. The AC50 in [4] was above 10 µM; at D(1A) dopamine receptor, above 30 µM; in test [5], above 30 µM; in test [6], 15 µM; in test [7], 14.5 µM; in test [8], 11.6 µM. For the same compound, the half-maximal activity concentration (AC50) on Melanocortin receptor 4 was above 10 µM; in test [9], above 30 µM; in test [10], 1 µM; in test [11], 0.795 µM; in test [12], above 30 µM.

Consider `C[C@@H](Cc1ccccc1)N(C)Cc1ccccc1` [BENZPHETAMINE], for which the AC50 in [1] is above 10 µM; on Cannabinoid receptor 1, above 30 µM; in test [2] it was above 10 µM; in [3] it was above 10 µM; at Vasopressin V1a receptor, above 10 µM; on D(3) dopamine receptor, above 30 µM. Also, the AC50 in test [4] was above 10 µM; at D(1A) dopamine receptor it was above 10 µM; in test [5], above 10 µM; in [6], above 10 µM; in test [7] it was above 10 µM; in test [8] it was 9.9 µM. For the same compound, the half-maximal activity concentration (AC50) at Melanocortin receptor 4 is above 10 µM; in test [9], above 30 µM; in test [10], 14.5 µM; in test [11], 1.97 µM; in test [12], above 30 µM.

For `COC(=O)[C@H]1[C@H]2C[C@@H]3c4[nH]c5ccccc5c4CCN3C[C@H]2C[C@@H](OC(=O)c2cc(OC)c(OC)c(OC)c2)[C@@H]1OC` [DESERPIDINE], the half-maximal activity concentration (AC50) in test [1] was above 10 µM; in test [2], above 10 µM; in [3], above 10 µM; at Vasopressin V1a receptor, above 30 µM; on D(3) dopamine receptor, above 30 µM; in test [4], above 10 µM. The AC50 on D(1A) dopamine receptor is above 10 µM; in test [5], above 10 µM; in test [6], 24.6 µM; in test [7] it was above 10 µM; in test [8], above 10 µM; at Melanocortin receptor 4, 8.6 µM. Further, the AC50 was above 10 µM in test [9], 2.45 µM in test [10], 13.7 µM in [11] and above 30 µM in test [12].

`Cc1cnc(Nc2ccc(OCCN3CCCC3)cc2)nc1Nc1cccc(S(=O)(=O)NC(C)(C)C)c1` [FEDRATINIB]: the AC50 in [1] is above 10 µM; in [2] it was above 10 µM; in [3] it was above 10 µM; on Vasopressin V1a receptor, above 30 µM; on D(3) dopamine receptor, 5.3 µM; in [4], above 10 µM. In addition, the AC50 is above 10 µM on D(1A) dopamine receptor; above 10 µM in [5]; 9.16 µM in test [6]; 1.2 µM in test [7]; 0.08 µM in test [8]; above 30 µM on Melanocortin receptor 4. Further, the AC50 in test [9] was above 30 µM; in test [10] it was 0.82 µM; in [11], 15.4 µM; in [12], above 30 µM.

Consider `CCC1(CC)C(=O)NC(=O)N(C)C1=O` [METHARBITAL], for which the concentration at half-maximal activity (AC50) in test [1] was above 10 µM; in test [2], above 10 µM; in test [3], above 10 µM; at Vasopressin V1a receptor, above 10 µM; on D(3) dopamine receptor, above 30 µM; in [4], above 10 µM. Also, the AC50 (at D(1A) dopamine receptor; in test [5]; in test [6]; in [7]; in [8]; at Melanocortin receptor 4) was above 10 µM each time. Also, the AC50 is above 10 µM in [9], above 30 µM in test [10], above 10 µM in test [11] and above 30 µM in [12].

Turning to `CCOC(=O)O[C@]1(C(=O)COC(=O)CC)CC[C@H]2[C@@H]3CCC4=CC(=O)C=C[C@]4(C)[C@H]3[C@@H](O)C[C@@]21C` [PREDNICARBATE], the AC50 in test [1] was above 10 µM; in test [2] it was above 10 µM; in test [3], above 10 µM; at Vasopressin V1a receptor, above 10 µM; on D(3) dopamine receptor, above 30 µM; in test [4], above 10 µM. Also, the half-maximal activity concentration (AC50) (on D(1A) dopamine receptor; in test [5]; in test [6]; in test [7]; in test [8]; on Melanocortin receptor 4) was above 10 µM each time. The AC50 in test [9] is above 10 µM; in test [10], above 30 µM; in test [11], above 10 µM; in test [12], above 30 µM.

As for `CCC(=O)[C@@]1(C)[C@H](C)C[C@H]2[C@@H]3CCC4=CC(=O)C=C[C@]4(C)[C@H]3[C@@H](O)C[C@@]21C` [RIMEXOLONE], the AC50 is above 10 µM in test [1]; above 10 µM in test [2]; above 10 µM in [3]; above 10 µM at Vasopressin V1a receptor; above 30 µM on D(3) dopamine receptor; above 10 µM in [4]. Also, the half-maximal activity concentration (AC50) (at D(1A) dopamine receptor; in test [5]; in test [6]; in [7]; in test [8]; at Melanocortin receptor 4) was above 10 µM throughout. The AC50 in test [9] was above 10 µM; in [10], above 30 µM; in [11], above 10 µM; in test [12], above 30 µM.

As to `OCC(CO)N[C@H]1C[C@](O)(CO)[C@@H](O)[C@H](O)[C@H]1O` [VOGLIBOSE], the AC50 (in test [1]; in test [2]; in [3]; on Vasopressin V1a receptor; at D(3) dopamine receptor; in test [4]) was above 30 µM throughout. In addition, the concentration at half-maximal activity (AC50) (at D(1A) dopamine receptor; in [5]; in test [6]; in [7]; in test [8]; on Melanocortin receptor 4) was above 30 µM each time. Moreover, the AC50 in [9], in test [10], in test [11] and in test [12] was above 30 µM each time.
